Data reported in US10842806B2, “Methods for treating ocular inflammatory disorders” (Massachusetts Eye and Ear Infirmary, priority 2011, dated 2020).

Key:
[1] = test system: TNF-α; experiment: TNF-α ELISA in aqueous humor, retina and serum of EIU rats; format: in vivo, Lewis rats; conditions: LPS + AICAR
Method: Male Lewis rats ranging from 6-8 weeks old (Charles River, Wilmington, Mass.) were used for these studies. To study the effects of AICAR pretreatment, AICAR and PBS (for placebo treatment) were delivered via intraperitoneal injection of AICAR (50 mg/kg or 100 mg/kg body weight; Sigma) diluted in 150 μl PBS or equal volume of PBS at 6 hours before and at the same time as LPS injection. Four experimental groups of rats were compared: (1) Normal: no treatment (2) AICAR: normal rats treated with AICAR 6 hours before examination; (3) LPS: EIU rats treated with PBS; (4) LPS+AICAR: EIU rats treated with AICAR. Two additional groups of rats were used to study the effects of AICAR (50 mg/kg) given either at the same time as LPS injection or at 6 hours after LPS injection. Under deep anesthesia, experimental rats were sacrificed and the retinas were carefully removed 24 hours after LPS injection, placed into 200 μl of lysis buffer and then sonicated. The lysate was centrifuged at 13,000 rpm for 10 minutes at 4° C. and supernatant was isolated. […] Cytokine and chemokine levels in the serum, aqueous humor, and retina were assessed using the rat CCL2/MCP-1 kit (Invitrogen, Camarillo, Calif.), the rat TNF-α kit (R&D system, Minneapolis, Minn.) and the rat ICAM-1 kit (R&D systems) by ELISA.

[2] = test system: ICAM-1; experiment: ICAM-1 ELISA in aqueous humor, retina and serum of EIU rats; format: in vivo, Lewis rats; conditions: LPS + AICAR
Method: Male Lewis rats ranging from 6-8 weeks old (Charles River, Wilmington, Mass.) were used for these studies. To study the effects of AICAR pretreatment, AICAR and PBS (for placebo treatment) were delivered via intraperitoneal injection of AICAR (50 mg/kg or 100 mg/kg body weight; Sigma) diluted in 150 μl PBS or equal volume of PBS at 6 hours before and at the same time as LPS injection. Four experimental groups of rats were compared: (1) Normal: no treatment (2) AICAR: normal rats treated with AICAR 6 hours before examination; (3) LPS: EIU rats treated with PBS; (4) LPS+AICAR: EIU rats treated with AICAR. Two additional groups of rats were used to study the effects of AICAR (50 mg/kg) given either at the same time as LPS injection or at 6 hours after LPS injection. Under deep anesthesia, experimental rats were sacrificed and the retinas were carefully removed 24 hours after LPS injection, placed into 200 μl of lysis buffer and then sonicated. The lysate was centrifuged at 13,000 rpm for 10 minutes at 4° C. and supernatant was isolated. Three hours after LPS injection, blood samples were collected from the heart and subsequently centrifuged at 3000 rpm for 30 minutes at 4° C., and serum samples were separated. Cytokine and chemokine levels in the serum, aqueous humor, and retina were assessed using the rat CCL2/MCP-1 kit (Invitrogen, Camarillo, Calif.), the rat TNF-α kit (R&D system, Minneapolis, Minn.) and the rat ICAM-1 kit (R&D systems) by ELISA.

[3] = test system: CD14; experiment: CD14 mRNA (real time PCR) and protein (Western blot) in PBMC of EIU rats; format: in vivo, Lewis rats; conditions: three hours after LPS
Method: Male Lewis rats ranging from 6-8 weeks old (Charles River, Wilmington, Mass.) were used for these studies. To study the effects of AICAR pretreatment, AICAR and PBS (for placebo treatment) were delivered via intraperitoneal injection of AICAR (50 mg/kg or 100 mg/kg body weight; Sigma) diluted in 150 μl PBS or equal volume of PBS at 6 hours before and at the same time as LPS injection. Four experimental groups of rats were compared: (1) Normal: no treatment (2) AICAR: normal rats treated with AICAR 6 hours before examination; (3) LPS: EIU rats treated with PBS; (4) LPS+AICAR: EIU rats treated with AICAR. Two additional groups of rats were used to study the effects of AICAR (50 mg/kg) given either at the same time as LPS injection or at 6 hours after LPS injection. For preparation of peripheral blood mononuclear cell (PBMC) samples, blood samples were collected at three hours after LPS injection, and PBMC samples were isolated by density gradient centrifugation with Histopaque 1083 (Sigma). The red blood cells were lysed with Red Blood Cell Lysing Buffer (Sigma). For Western blot analysis, pooled PBMCs from three rats were homogenized with lysis buffer (Roche Diagnostics Corp) and centrifuged at 13,000 rpm for 10 minutes at 4° C. […] Quantitative expression data were acquired and analyzed with a Step One Plus real-time PCR system (Applied Biosystems).

[4] = test system: AMPKα1 KO BMDCs; experiment: LPS-stimulated AMPKα1 KO BMDC maturation and cytokine production; format: cell-based, mice; conditions: after LPS stimulation with AICAR
Method: BMDCs were generated as previously described (Wang et al. (2005) IMMUNOL. LETT. 98:123-130). Briefly, bone marrow was flushed from the femurs and tibias of naive mice (6 to 8-week-old WT or AMPKα1 KO mice). The red blood cells were lysed using Red Blood Cell Lysing Buffer (Sigma). Approximately 2×10^6 cells were cultured in complete medium (RPMI 1640 medium containing 10% FBS, […], 10 mM HEPES [pH 7.4], 2 mM glutamine, 100 U/ml penicillin, and […]) including 10 ng/ml GM-CSF (Pepro Tech, London, England). Fresh media was added to the cells on day 4 of culture, and nonadherent cells and loosely adherent cells were collected as immature DCs on day 7. Immature DCs were stimulated with 100 ng/ml LPS (Salmonella typhimurium; Sigma) for 24 hours to obtain mature DCs. In some experiments, AICAR was added to the culture. […] After LPS stimulation for 24 hours, supernatant of the BMDC culture was collected and IL-6, TNF-α and IL12/23 p40 concentrations were measured (R&D system). […] In these experiments, AMPKα1 KO mice were provided as previously described (Jorgensen et al. (2004) J. BIOL. CHEM. 279:1070-1079). Since BMDCs expressed only AMPKα1, BMDCs were extracted from AMPK KO mouse and used to determine the role of AMPK in the anti-inflammatory effects of AICAR. As shown in FIGS. 14A and 14B, AICAR suppressed the maturation of AMPKα1 KO BMDCs.

NC(=O)c1ncn([C@@H]2O[C@H](CO)[C@@H](O)[C@H]2O)c1N [AICAR, 5-aminoimidazole-4-carboxamide-1-β-d-ribofuranoside]
TNF-α in serum ([1]; 3 hours after LPS, n=11, LPS 147.2 ± 337.1, p 0.475): 57.8 ± 143.1 pg/mL | TNF-α in aqueous humor ([1]; 24 h after LPS, n=12, LPS 277.8 ± 123.9): 92.5 ± 140.5 pg/mL | ICAM-1 in serum ([2]; 3 hours after LPS, n=11, LPS 28.7 ± 8.1): 21.6 ± 5.0 ng/mL | ICAM-1 in aqueous humor ([2]; 24 h after LPS, n=12, LPS 8.7 ± 4.4): 4.4 ± 3.3 ng/mL | ICAM-1 in retina ([2]; 24 h after LPS, n=14, LPS 316.4 ± 132.3): 202.9 ± 113.4 pg/total retinal protein | CD14 mRNA expression in PBMCs ([3]; AICAR pretreatment, n=9, EIU 3.8±0.7, normal 0.7±0.3): 1.7±1.0 | CD14 protein expression in PBMCs (Western blot) ([3]; AICAR-pretreated rats vs EIU rats): decreased | CD40 expression in AMPKα1 KO BMDCs [4]: significantly suppressed | CD80 expression in AMPKα1 KO BMDCs [4]: significantly suppressed | CD86 expression in AMPKα1 KO BMDCs [4]: significantly suppressed | I-A^b expression in AMPKα1 KO BMDCs [4]: significantly suppressed | IL12/23 p40 production in AMPKα1 KO BMDCs [4]: suppressed | IL-6 production in AMPKα1 KO BMDCs [4]: suppressed | TNF-α production in AMPKα1 KO BMDCs [4]: suppressed
